pEC50: −log10 of the molar value. Where two headings read alike, the source gives them in different places.
Biological target: T1, F508delCFTR (Homo sapiens, UniProt P13569, DEL508-508)
T1 construct: expressed in transfected cells; host or cells: CFBE41o- human lung-derived epithelial cells (CFBE4lo-F508delCFTR-HRP), doxycycline-inducible
Experiment: Cell Surface Expression-Horse Radish Peroxidase (CSE-HRP) Assay;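 for Maximum % activity (with co-corrector): co-corrector and positive control are both the same reference corrector at 2 µM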;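 for Maximum % activity (without co-corrector): percent of the 2 µM on-plate positive control corrector response above DMSO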
Format: cell-based
Conditions: for Emax: read-out: Maximum % activity (without co-corrector)

[1] = test compound without co-corrector, read-out: EC50 (without co-corrector)
[2] = with co-corrector (2 μM of 3-[(2R,4R)-4-({[1-(2,2-difluoro-1,3-benzodioxol-5-yl)cyclopropyl]carbonyl}amino)-7-methoxy-3,4-dihydro-2H-chromen-2-yl]benzoic acid), read-out: EC50 (with co-corrector)
[3] = with co-corrector (2 μM), maximum at any tested concentration, normalized to on-plate positive control
[4] = without co-corrector, maximum at any tested concentration, normalized to on-plate positive control
[5] = test compound without co-corrector, maximum at any tested concentration, normalized to on-plate positive control
[6] = with co-corrector (2 μM of 3-[(2R,4R)-4-({[1-(2,2-difluoro-1,3-benzodioxol-5-yl)cyclopropyl]carbonyl}amino)-7-methoxy-3,4-dihydro-2H-chromen-2-yl]benzoic acid), maximum at any tested concentration, normalized to on-plate positive control
[7] = CSE-HRP, test compound without co-corrector, read-out: EC50 (without co-corrector)
[8] = CSE-HRP, with co-corrector (2 μM of 3-[(2R,4R)-4-({[1-(2,2-difluoro-1,3-benzodioxol-5-yl)cyclopropyl]carbonyl}amino)-7-methoxy-3,4-dihydro-2H-chromen-2-yl]benzoic acid), read-out: EC50 (with co-corrector)
[9] = CSE-HRP, with co-corrector (2 μM), maximum at any tested concentration, normalized to on-plate positive control
[10] = CSE-HRP, without co-corrector, maximum at any tested concentration, normalized to on-plate positive control

T1 sequence (P13569 with tags, fused parts or gaps DEL508-508): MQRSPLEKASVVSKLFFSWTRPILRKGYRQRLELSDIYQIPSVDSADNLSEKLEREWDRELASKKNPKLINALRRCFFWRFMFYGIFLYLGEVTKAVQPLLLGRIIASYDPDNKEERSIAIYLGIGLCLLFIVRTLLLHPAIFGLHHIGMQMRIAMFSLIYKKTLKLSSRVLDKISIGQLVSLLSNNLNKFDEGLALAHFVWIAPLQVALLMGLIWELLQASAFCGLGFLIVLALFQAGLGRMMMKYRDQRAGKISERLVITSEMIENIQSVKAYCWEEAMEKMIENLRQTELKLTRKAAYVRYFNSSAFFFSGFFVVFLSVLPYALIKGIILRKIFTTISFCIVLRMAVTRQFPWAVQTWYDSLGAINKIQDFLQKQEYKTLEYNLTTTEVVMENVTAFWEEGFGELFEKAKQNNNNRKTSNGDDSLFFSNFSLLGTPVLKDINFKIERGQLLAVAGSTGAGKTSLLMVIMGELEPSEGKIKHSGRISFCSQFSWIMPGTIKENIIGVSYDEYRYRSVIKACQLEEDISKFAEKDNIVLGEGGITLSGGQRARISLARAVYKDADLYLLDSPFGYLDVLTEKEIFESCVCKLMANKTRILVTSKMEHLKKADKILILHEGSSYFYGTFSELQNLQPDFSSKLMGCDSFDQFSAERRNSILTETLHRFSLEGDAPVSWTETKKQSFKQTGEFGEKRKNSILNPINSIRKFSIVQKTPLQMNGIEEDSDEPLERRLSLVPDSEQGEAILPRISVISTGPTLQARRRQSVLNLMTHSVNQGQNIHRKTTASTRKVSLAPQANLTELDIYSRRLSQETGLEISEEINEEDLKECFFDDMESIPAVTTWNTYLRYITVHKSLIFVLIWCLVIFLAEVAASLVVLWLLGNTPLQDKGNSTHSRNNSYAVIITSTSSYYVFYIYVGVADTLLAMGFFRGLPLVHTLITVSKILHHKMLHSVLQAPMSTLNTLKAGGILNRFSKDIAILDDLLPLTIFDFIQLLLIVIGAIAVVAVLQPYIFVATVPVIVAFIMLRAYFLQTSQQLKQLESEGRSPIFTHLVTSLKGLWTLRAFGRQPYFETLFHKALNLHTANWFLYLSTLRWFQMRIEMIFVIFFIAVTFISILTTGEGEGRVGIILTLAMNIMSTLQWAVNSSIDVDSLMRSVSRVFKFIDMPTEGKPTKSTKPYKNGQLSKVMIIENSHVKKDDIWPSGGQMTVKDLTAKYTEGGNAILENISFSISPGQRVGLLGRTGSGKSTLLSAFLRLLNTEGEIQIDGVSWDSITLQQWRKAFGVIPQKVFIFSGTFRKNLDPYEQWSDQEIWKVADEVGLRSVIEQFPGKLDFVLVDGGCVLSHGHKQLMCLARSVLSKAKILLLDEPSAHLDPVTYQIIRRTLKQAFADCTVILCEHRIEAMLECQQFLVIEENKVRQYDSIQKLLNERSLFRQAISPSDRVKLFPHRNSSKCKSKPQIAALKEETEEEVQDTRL

Row | Structure (SMILES) | pEC50 [1] | pEC50 [2] | Maximum % activity (with co-corrector) [3] | Emax [4] | Emax [5] | Maximum % activity (with co-corrector) [6] | pEC50 [7] | pEC50 [8] | Maximum % activity (with co-corrector) [9] | Emax [10] | Maximum % activity (without co-corrector) [10]
1 | COc1ncc(C(F)(F)F)cc1CN[C@H]1[C@H](C(C)(C)C)[C@@H](C(=O)O)N(C(=O)C2CCCCC2)[C@H]1c1ccc(F)cc1 [Example 26, (2S,3S,4S,5S)-3-tert-butyl-1-(cyclohexanecarbonyl)-5-(4-fluorophenyl)-4-({[2-methoxy-5-(trifluoromethyl)pyridin-3-yl]methyl}amino)pyrrolidine-2-carboxylic acid] | > 6.00 | > 6.00 | +++ (≥350) | 100 to 200% |  |  |  |  |  |  | 
2 | COc1ccc(OC(F)F)c(CN[C@@H]2[C@@H](C(C)(C)C)[C@H](C(=O)O)N(C(=O)C3CCCCC3)[C@@H]2c2ccccc2)c1 (racemic) [Example I-14] | < 5.00 | 5.00 to 6.00 | ++ (≥150 and <350) | < 100% |  |  |  |  |  |  | 
3 | COc1ncc(C(F)(F)F)cc1CN[C@H]1[C@H](C(C)(C)C)[C@@H](C(=O)O)N(C(=O)C2CCCCC2)[C@H]1c1ccccc1OC(F)F [Example 14, (2S,3S,4S,5S)-3-tert-butyl-1-(cyclohexanecarbonyl)-5-[2-(difluoromethoxy)phenyl]-4-({[2-methoxy-5-(trifluoromethyl)pyridin-3-yl]methyl}amino)pyrrolidine-2-carboxylic acid] | 5.00 to 6.00 | 5.00 to 6.00 | +++ (≥350) | < 100% |  |  |  |  |  |  | 
4 | COc1cc(C(F)(F)F)ccc1CN[C@H]1[C@H](C(C)(C)C)[C@@H](C(=O)O)N(C(=O)[C@@H]2CCCCO2)[C@H]1c1ccccc1Br [Example I-289] |  |  |  |  |  |  | 5.00 to 6.00 | > 6.00 | +++ (≥350) | 100 to 200% | 
5 | COc1ccc(C(C)(C)C)cc1CN[C@H]1[C@H](C(C)(C)C)[C@@H](C(=O)O)N(C(=O)[C@@H]2CCCO2)[C@H]1c1cccnc1N(C)C [Example I-284] |  |  |  |  |  |  | 5.00 to 6.00 | 5.00 to 6.00 | +++ (≥350) | > 200% | 
6 | COc1ccc(C(C)(C)C)cc1CN[C@H]1[C@H](C(C)(C)C)[C@@H](C(=O)O)N(C(=O)[C@@H]2CCCO2)[C@H]1c1ccccc1C(C)C [Example 104, (2S,3S,4S,5S)-3-tert-butyl-4-{[(5-tert-butyl-2-methoxyphenyl)methyl]amino}-1-[(2S)-oxolane-2-carbonyl]-5-[2-(propan-2-yl)phenyl]pyrrolidine-2-carboxylic acid] | 5.00 to 6.00 | > 6.00 | +++ (≥350) | > 200% |  |  |  |  |  |  | 
7 | COc1ccc(C(C)(C)C)cc1CN[C@H]1[C@H](C(C)(C)C)[C@@H](C(=O)O)N(C(=O)[C@H]2CCCCO2)[C@H]1c1ccccc1OC(F)F [Example 45, (2S,3S,4S,5S)-3-tert-butyl-4-{[(5-tert-butyl-2-methoxyphenyl)methyl]amino}-5-[2-(difluoromethoxy)phenyl]-1-[(2R)-oxane-2-carbonyl]pyrrolidine-2-carboxylic acid] | 5.00 to 6.00 | 5.00 to 6.00 | +++ (≥350) | 100 to 200% |  |  |  |  |  |  | 

Results, then the compound that gave them:

Row | pEC50 [1] | pEC50 [2] | Maximum % activity (with co-corrector) [3] | Emax [4] | Emax [5] | Maximum % activity (with co-corrector) [6] | pEC50 [7] | pEC50 [8] | Maximum % activity (with co-corrector) [9] | Emax [10] | Maximum % activity (without co-corrector) [10] | Structure (SMILES)
8 | 5.00 to 6.00 | 5.00 to 6.00 |  |  | 100 to 200% | +++ (≥350) |  |  |  |  |  | COc1ccc(C(C)(C)C)nc1CN[C@H]1[C@H](C(C)(C)C)[C@@H](C(=O)O)N(C(=O)C2CCCCC2)[C@H]1c1ccccc1 [II-373]
9 |  |  |  |  |  |  | 5.00 to 6.00 | 5.00 to 6.00 | +++ (≥350) | < 100% |  | CC(C)(C)[C@@H]1[C@@H](NCc2ccccc2OC(F)(F)F)[C@@H](c2ccccc2)N(C(=O)C2CCCCC2)[C@H]1C(=O)O (racemic) [II-76]
10 |  |  |  |  |  |  | > 6.00 | > 6.00 | +++ (≥350) | > 200% |  | COc1ccc(C(C)(C)C)cc1CN[C@H]1[C@H](C(C)(C)C)[C@@H](C(=O)O)N(C(=O)Cc2c(F)cccc2F)[C@H]1c1ccccc1 [II-201]
11 |  |  |  |  |  |  | > 6.00 | 5.00 to 6.00 | ++ (≥150 and <350) | < 100% |  | Cc1ccc(C(F)(F)F)cc1CN[C@@H]1[C@@H](C(C)(C)C)[C@H](C(=O)O)N(C(=O)C2CCCCC2)[C@@H]1c1ccccc1 (racemic) [II-72]
12 |  |  |  |  |  |  | 5.00 to 6.00 | > 6.00 | +++ (≥350) | > 200% |  | COc1nc2ccccc2cc1CN[C@H]1[C@H](C(C)(C)C)[C@@H](C(=O)O)N(C(=O)C2CCCCC2)[C@H]1c1ccccc1 [II-244]
13 | 5.00 to 6.00 | > 6.00 |  |  | 100 to 200% | +++ (≥350) |  |  |  |  |  | COc1ccc(C(C)(C)C)cc1CN[C@H]1[C@H](C(C)(C)C)[C@@H](C(=O)O)N(C(=O)c2cnn(C(C)(C)C)c2C#N)[C@H]1c1ccccc1 [II-355]
14 |  |  |  |  |  |  | 5.00 to 6.00 | 5.00 to 6.00 | +++ (≥350) |  | + (<100) | COc1ccc(C(C)(C)C)cc1CN[C@H]1[C@H](C(C)(C)C)[C@@H](C(=O)O)N(C(=O)C(C)n2cc(Cl)c(C)n2)[C@H]1c1ccccc1 (single isomer, unassigned) [II-237]
15 |  |  |  |  |  |  | 5.00 to 6.00 | > 6.00 | +++ (≥350) | 100 to 200% |  | COc1cc(C(C)(C)C)ccc1CN[C@H]1[C@H](C(C)(C)C)[C@@H](C(=O)O)N(C(=O)C2CCCCC2)[C@H]1c1cccnc1N(C)C [II-102]
16 | 5.00 to 6.00 | 5.00 to 6.00 | ++ (≥150 and <350) |  | < 100% |  |  |  |  |  |  | COc1ccc(C(C)(C)C)cc1CN[C@H]1[C@H](C(C)(C)C)[C@@H](C(=O)O)N(C(=O)C2CCc3cc(F)ccc3O2)[C@H]1c1cccnc1N(C)C (stereo partly shown) [III-210]
17 | 5.00 to 6.00 | 5.00 to 6.00 |  |  | > 200% | +++ (≥350) |  |  |  |  |  | COc1ncc(C(F)(F)F)cc1CN[C@H]1[C@H](C(C)(C)C)[C@@H](C(=O)O)N(C(=O)OC(C)C)[C@H]1c1cccnc1N1CCC1 [II-592]
18 | < 5.00 | > 6.00 | + (<150) |  | < 100% |  |  |  |  |  |  | CC(C)OC(=O)N1[C@H](C(=O)O)[C@@H](C(C)(C)C)[C@H](NCC2CCN(C(C)C)CC2)[C@@H]1c1ccccc1 [III-235]
19 | < 5.00 | 5.00 to 6.00 |  |  | < 100% | ++ (≥150 and <350) |  |  |  |  |  | COc1ccc(Cl)cc1CN[C@@H]1[C@@H](C2CC2)[C@H](C(=O)O)N(C(=O)N(C(C)C)C(C)C)[C@@H]1c1ccccc1 (racemic) [III-48]
20 |  |  |  |  |  |  | 5.00 to 6.00 | 5.00 to 6.00 | +++ (≥350) | 100 to 200% |  | COc1cc(C(F)(F)F)ccc1CN[C@H]1[C@H](C(C)(C)C)[C@@H](C(=O)O)N(C(=O)[C@@H](OC)c2ccccc2)[C@H]1c1ccccc1 [II-65]
21 | 5.00 to 6.00 | 5.00 to 6.00 | +++ (≥350) |  | > 200% |  |  |  |  |  |  | COc1ncc(C2CCC2)cc1CN[C@H]1[C@H](C(C)(C)C)[C@@H](C(=O)O)N(C(=O)OC(C)C)[C@H]1c1cccnc1N(C)C [III-224]
22 | > 6.00 | > 6.00 |  |  | < 100% | +++ (≥350) |  |  |  |  |  | COc1ccc(C(C)(C)C)cc1CN[C@H]1[C@H](C(C)(C)C)[C@@H](C(=O)O)N(C(=O)C2(c3ccccc3)COc3ccccc32)[C@H]1c1ccccc1 (stereo partly shown) [II-370]
